Data from article PMC7239764 (The FEBS journal, 2019).
Several values for one entry are separate records, joined by “and”; a condition that tells them apart may be missing. Equal values may be shown once. Read-outs that look alike come from different tables or passages of the source.

Legend:
[1] = target: T1, BaPDH (prephenate dehydrogenase from Bacillus anthracis) (Bacillus anthracis, UniProt Q81P63); test: biochemical; format: biochemical; conditions: for Km: 25°C, pH 7.5
[2] = target: T1, BaPDH (prephenate dehydrogenase from Bacillus anthracis); format: binding
[3] = target: T1, BaPDH (prephenate dehydrogenase from Bacillus anthracis); test: biochemical; format: binding
[4] = target: AaPDH (prephenate dehydrogenase from Aquifex aeolicus); conditions: cited from earlier work
[5] = target: arogenate dehydrogenase from cyanobacteria Synechocystis sp.; conditions: cited from earlier work

T1 sequence (Q81P63 1-378): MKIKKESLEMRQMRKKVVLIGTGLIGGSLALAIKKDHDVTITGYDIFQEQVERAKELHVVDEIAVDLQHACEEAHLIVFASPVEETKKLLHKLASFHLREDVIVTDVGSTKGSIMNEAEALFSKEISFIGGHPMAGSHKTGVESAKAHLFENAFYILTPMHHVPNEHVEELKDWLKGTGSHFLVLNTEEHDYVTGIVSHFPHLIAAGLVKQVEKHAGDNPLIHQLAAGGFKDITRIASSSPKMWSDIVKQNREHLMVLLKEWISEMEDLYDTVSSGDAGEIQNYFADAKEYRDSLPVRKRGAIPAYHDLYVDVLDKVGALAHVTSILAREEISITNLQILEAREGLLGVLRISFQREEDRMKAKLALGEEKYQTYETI

SMILES | Km [1] [µM] | Increase in Tm with the addition of the ligand(s) [2] | Tm [2] [°C] | Binding sites per protein dimer (N) [3] | also measured
NC(=O)c1ccc[n+]([C@@H]2O[C@H](COP(=O)([O-])OP(=O)(O)OC[C@H]3O[C@@H](n4cnc5c(N)ncnc54)[C@H](O)[C@@H]3O)[C@@H](O)[C@H]2O)c1 [NAD^+] | 237 ± 44 | does not impart a significant change and ns | 41 ± 1 | 0.90 ± 0.01 | –
NC(=O)c1ccc[n+]([C@@H]2O[C@H](COP(=O)([O-])OP(=O)(O)OC[C@H]3O[C@@H](n4cnc5c(N)ncnc54)[C@H](OP(=O)(O)O)[C@@H]3O)[C@@H](O)[C@H]2O)c1 [NADP^+] | – | do not significantly change and ns | 41 ± 1 | – | Kd [3]: No detectable binding
O=C(O)C(=O)CC1(C(=O)O)C=CC(O)C=C1 (stereo not shown) [prephenate] | 58 ± 9 | – | – | – | –
NC(=O)C1=CN([C@@H]2O[C@H](COP(=O)(O)OP(=O)(O)OC[C@H]3O[C@@H](n4cnc5c(N)ncnc54)[C@H](OP(=O)(O)O)[C@@H]3O)[C@@H](O)[C@H]2O)C=CC1 [NADPH] | – | do not significantly change and ns | 40 ± 1 | – | –
NC(=O)C1=CN([C@@H]2O[C@H](COP(=O)(O)OP(=O)(O)OC[C@H]3O[C@@H](n4cnc5c(N)ncnc54)[C@H](O)[C@@H]3O)[C@@H](O)[C@H]2O)C=CC1 [NADH] | – | do not significantly change and ns | 43 ± 2 | – | –
N[C@@H](Cc1ccc(O)cc1)C(=O)O [Tyrosine, L-tyrosine] | – | – | 51 ± 1 | 1.002 ± 0.001 and 0.928 ± 0.003 | Ki [1]: 1470 ± 70 nM; mode of inhibition [1]: non-competitive inhibition; Kd ([3]; Kd): 640 nM and 370 nM; Ki [4]: 15.9 ± 1.3 µM; Ki [5]: 70 µM
